ChEMBL document CHEMBL1201862, “PubChem BioAssay data set” (2004)
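These data come from cells grown in 96-well plates and exposed to compound for 48 hours at five concentrations. GI50 marks 50% less growth.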 Activity calls are given as the source filed them. No stated cut-off is given here; in the data, active = GI50 up to about 1.1 µM and inactive = higher.

Experiments:
Test in all cases: NCI anticancer screen, dose series, 48 h
[1] = test system: BT-549
[2] = test system: NCI/ADR-RES
[3] = test system: HCT-15
[4] = test system: MDA-MB-231
[5] = test system: HL-60
[6] = test system: Malme-3M
[7] = test system: TK-10
[8] = test system: UO-31
[9] = test system: HOP-92
[10] = test system: NCI-H23
[11] = test system: MCF7
[12] = test system: EKVX
[13] = test system: RPMI-8226
[14] = test system: PC-3
[15] = test system: SK-MEL-28
[16] = test system: OVCAR-5
[17] = test system: 786-0
[18] = test system: OVCAR-4
[19] = test system: NCI-H522
[20] = test system: NCI-H226
[21] = test system: A498
[22] = test system: K562
[23] = test system: NCI-H460
[24] = test system: SW-620
[25] = test system: COLO 205
[26] = test system: M14
[27] = test system: MDA-N
[28] = test system: OVCAR-8
[29] = test system: UACC-62
[30] = test system: SN12C
[31] = test system: A549
[32] = test system: KM12
[33] = test system: SNB-75
[34] = test system: HCC 2998
[35] = test system: CAKI-1
[36] = test system: DU-145
[37] = test system: SK-MEL-2
[38] = test system: SF-295
[39] = test system: Hs-578T
[40] = test system: CCRF-CEM
[41] = test system: T47D
[42] = test system: HCT-116
[43] = test system: U-251
[44] = test system: IGROV-1
[45] = test system: SK-MEL-5
[46] = test system: HT-29
[47] = test system: SF-539
[48] = test system: MDA-MB-435
[49] = test system: MOLT-4
[50] = test system: ACHN
[51] = test system: SK-OV-3
[52] = test system: OVCAR-3
[53] = test system: LOX IMVI
[54] = test system: SF-268
[55] = test system: HOP-62
[56] = test system: UACC-257
[57] = test system: SNB-19
[58] = test system: RXF 393

## O=C(CSc1nc2ccc([N+](=O)[O-])cc2s1)c1ccc2ccccc2c1
[1]
  GI50: > 100 µM (inactive)
[2]
  GI50: > 100 µM (inactive)
[3]
  GI50: > 100 µM
[4]
  GI50: > 100 µM (inactive)
[5]
  GI50: > 100 µM (inactive)
[6]
  GI50: > 100 µM (inactive)
[7]
  GI50: 54.2 µM (inactive)
[8]
  GI50: > 100 µM (inactive)
[9]
  GI50: 57.7 µM (inactive)
[10]
  GI50: 33 µM (inactive)
[11]
  GI50: > 100 µM (inactive)
[12]
  GI50: > 100 µM (inactive)
[13]
  GI50: > 100 µM (inactive)
[14]
  GI50: 88.1 µM (inactive)
[15]
  GI50: > 100 µM (inactive)
[16]
  GI50: > 100 µM (inactive)
[17]
  GI50: 34 µM (inactive)
[18]
  GI50: 41.2 µM (inactive)
[19]
  GI50: > 100 µM (inactive)
[20]
  GI50: > 100 µM (inactive)
[21]
  GI50: > 100 µM (inactive)
[22]
  GI50: 84.9 µM (inactive)
[23]
  GI50: > 100 µM (inactive)
[24]
  GI50: > 100 µM (inactive)
[25]
  GI50: > 100 µM (inactive)
[26]
  GI50: > 100 µM (inactive)
[27]
  GI50: > 100 µM (inactive)
[28]
  GI50: 37.4 µM (inactive)
[29]
  GI50: > 100 µM (inactive)
[30]
  GI50: > 100 µM (inactive)
[31]
  GI50: > 100 µM (inactive)
[32]
  GI50: > 100 µM (inactive)
[33]
  GI50: > 100 µM (inactive)
[34]
  GI50: > 100 µM (inactive)
[35]
  GI50: > 100 µM (inactive)
[36]
  GI50: > 100 µM (inactive)
[37]
  GI50: > 100 µM (inactive)
[38]
  GI50: 93.1 µM (inactive)
[39]
  GI50: 89.5 µM (inactive)
[40]
  GI50: 84.5 µM (inactive)
[41]
  GI50: > 100 µM (inactive)
[42]
  GI50: > 100 µM (inactive)
[43]
  GI50: > 100 µM (inactive)
[44]
  GI50: > 100 µM (inactive)
[45]
  GI50: > 100 µM (inactive)
[46]
  GI50: > 100 µM (inactive)
[47]
  GI50: 62.2 µM (inactive)
[48]
  GI50: > 100 µM (inactive)
[49]
  GI50: 74.6 µM (inactive)
[50]
  GI50: > 100 µM (inactive)
[51]
  GI50: > 100 µM (inactive)
[52]
  GI50: > 100 µM (inactive)
[53]
  GI50: > 100 µM (inactive)
[54]
  GI50: > 100 µM (inactive)
[55]
  GI50: > 100 µM (inactive)
[56]
  GI50: > 100 µM (inactive)
[57]
  GI50: 50.2 µM (inactive)
[58]
  GI50: > 100 µM (inactive)

## COc1cc([N+](=O)[O-])c(OC)c2c(Nc3ccc(S(=O)(=O)O)c4cc(S(=O)(=O)O)cc(S(=O)(=O)O)c34)cc(C)nc12
[1]
  GI50: > 100 µM (inactive)
[2]
  GI50: > 100 µM (inactive)
[4]
  GI50: > 100 µM (inactive)
[5]
  GI50: > 100 µM (inactive)
[6]
  GI50: > 100 µM (inactive)
[7]
  GI50: > 100 µM (inactive)
[8]
  GI50: > 100 µM (inactive)
[10]
  GI50: > 100 µM (inactive)
[11]
  GI50: > 100 µM (inactive)
[12]
  GI50: > 100 µM (inactive)
[14]
  GI50: > 100 µM (inactive)
[15]
  GI50: > 100 µM (inactive)
[16]
  GI50: > 100 µM (inactive)
[17]
  GI50: > 100 µM (inactive)
[19]
  GI50: > 100 µM (inactive)
[20]
  GI50: > 100 µM (inactive)
[21]
  GI50: > 100 µM (inactive)
[24]
  GI50: > 100 µM (inactive)
[25]
  GI50: > 100 µM (inactive)
[26]
  GI50: > 100 µM (inactive)
[27]
  GI50: > 100 µM (inactive)
[28]
  GI50: > 100 µM (inactive)
[29]
  GI50: > 100 µM (inactive)
[30]
  GI50: > 100 µM (inactive)
[31]
  GI50: > 100 µM (inactive)
[32]
  GI50: > 100 µM (inactive)
[33]
  GI50: > 100 µM (inactive)
[35]
  GI50: > 100 µM (inactive)
[36]
  GI50: > 100 µM (inactive)
[37]
  GI50: > 100 µM (inactive)
[39]
  GI50: > 100 µM (inactive)
[40]
  GI50: > 100 µM (inactive)
[41]
  GI50: > 100 µM (inactive)
[42]
  GI50: > 100 µM (inactive)
[43]
  GI50: > 100 µM (inactive)
[44]
  GI50: > 100 µM (inactive)
[45]
  GI50: > 100 µM (inactive)
[46]
  GI50: > 100 µM (inactive)
[47]
  GI50: > 100 µM (inactive)
[48]
  GI50: > 100 µM (inactive)
[49]
  GI50: > 100 µM (inactive)
[51]
  GI50: > 100 µM (inactive)
[52]
  GI50: > 100 µM (inactive)
[53]
  GI50: > 100 µM (inactive)
[54]
  GI50: > 100 µM (inactive)
[55]
  GI50: > 100 µM (inactive)
[56]
  GI50: > 100 µM (inactive)
[58]
  GI50: > 100 µM (inactive)

## NNC(=O)c1nnn(N)c1S
[1]
  GI50: > 100 µM (inactive)
[2]
  GI50: > 100 µM (inactive)
[3]
  GI50: > 100 µM
[4]
  GI50: 45.4 µM (inactive)
[5]
  GI50: 1 µM (active)
[6]
  GI50: > 100 µM (inactive)
[7]
  GI50: > 100 µM (inactive)
[8]
  GI50: > 100 µM (inactive)
[10]
  GI50: > 100 µM (inactive)
[12]
  GI50: > 100 µM (inactive)
[13]
  GI50: > 100 µM (inactive)
[14]
  GI50: > 100 µM (inactive)
[15]
  GI50: > 100 µM (inactive)
[16]
  GI50: > 100 µM (inactive)
[17]
  GI50: 93.8 µM (inactive)
[18]
  GI50: > 100 µM (inactive)
[19]
  GI50: > 100 µM (inactive)
[20]
  GI50: > 100 µM (inactive)
[21]
  GI50: > 100 µM (inactive)
[22]
  GI50: 36.8 µM (inactive)
[23]
  GI50: > 100 µM (inactive)
[24]
  GI50: > 100 µM (inactive)
[25]
  GI50: > 100 µM (inactive)
[26]
  GI50: > 100 µM (inactive)
[27]
  GI50: > 100 µM (inactive)
[28]
  GI50: > 100 µM (inactive)
[29]
  GI50: > 100 µM (inactive)
[30]
  GI50: > 100 µM (inactive)
[31]
  GI50: > 100 µM (inactive)
[32]
  GI50: 13.5 µM (inactive)
[33]
  GI50: > 100 µM (inactive)
[34]
  GI50: > 100 µM (inactive)
[35]
  GI50: 84.5 µM (inactive)
[36]
  GI50: > 100 µM (inactive)
[37]
  GI50: > 100 µM (inactive)
[38]
  GI50: > 100 µM (inactive)
[39]
  GI50: > 100 µM (inactive)
[40]
  GI50: 66.1 µM (inactive)
[41]
  GI50: > 100 µM (inactive)
[42]
  GI50: > 100 µM (inactive)
[43]
  GI50: > 100 µM (inactive)
[44]
  GI50: > 100 µM (inactive)
[45]
  GI50: > 100 µM (inactive)
[46]
  GI50: > 100 µM (inactive)
[47]
  GI50: > 100 µM (inactive)
[48]
  GI50: > 100 µM (inactive)
[49]
  GI50: > 100 µM (inactive)
[50]
  GI50: > 100 µM (inactive)
[51]
  GI50: > 100 µM (inactive)
[52]
  GI50: > 100 µM (inactive)
[53]
  GI50: 79.6 µM (inactive)
[54]
  GI50: > 100 µM (inactive)
[55]
  GI50: > 100 µM (inactive)
[56]
  GI50: > 100 µM (inactive)
[58]
  GI50: > 100 µM (inactive)
